Measured values taken from EP4741392A1, “1H-PYRAZOLO[4,3-C]PYRIDINE COMPOUND, AND COMPOSITION THEREOF AND USE THEREOF” (Shenzhen TargetRx Co., Ltd., priority 2023, dated 2025).

Experiments:
Type in all cases: cell-based
Ramos cells with BTK WT = assay: Phosphor-BTK(Y223) assay, suspended cells; details: Homo sapiens, Ramos, phosphorylated BTK Y223, Ramos cells with BTK WT
In short: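 Ramos BTK WT cells (2.5 k/well) were treated with compound dilutions for 2 h at 37 °C, then 5 mM Na3VO4 for 3 h. Lysates were read by HTRF p-BTK(Y223) cryptate/d2 antibodies overnight at RT (665/620 ratio). IC50 came from a four-parameter fit of % inhibition versus blank and positive-control wells.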

NIH/3T3 BTK WT cells = assay: Phosphor-BTK(Y223) assay, adherent cells; details: Mus musculus, NIH3T3, phosphorylated BTK Y223, NIH/3T3 BTK WT cells; read-out: NIH/3T3 BTK-WT pBTK
In short: (§1)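 NIH/3T3 cells expressing WT or C481S BTK were pretreated with compound for 0.5 h at 37 °C, then stimulated with 1 mM Na3VO4 (final) for 2 h. Lysates were assayed by HTRF for p-BTK Y223 using the 665/620 nm ratio. IC50 was obtained by nonlinear fit of % inhibition versus 0.5% DMSO control.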

NIH/3T3 BTK C481S cells = assay: Phosphor-BTK(Y223) assay, adherent cells; details: Mus musculus, NIH3T3, phosphorylated BTK Y223, NIH/3T3 BTK C481S cells; read-out: NIH/3T3 BTK-C481S pBTK
In short: as §1

Row | Compound | IC50 (Ramos cells with BTK WT) | IC50 (NIH/3T3 BTK WT cells) | IC50 (NIH/3T3 BTK C481S cells)
1 | COc1ccc(F)cc1C(=O)NCc1ccc(-c2ncc(-c3ccc4nccn4n3)c3[nH]nc(N)c23)cc1 [Example 51, N-(4-(3-amino-7-(imidazo[1,2-b]pyridazin-6-yl)-1H-pyrazolo[4,3-c]pyridin-4-yl)benzyl)-5-fluoro-2-methoxybenzamide] | 5 to 10 nM | ≤ 5 nM | 5 to 10 nM
2 | COc1ccc(F)cc1C(=O)NCc1ccc(-c2ncc(-c3ccc(C(=O)N4CCOCC4)cn3)c3[nH]nc(N)c23)cc1 [Example 52, N-(4-(3-amino-7-(5-(morpholine-4-carbonyl)pyridin-2-yl)-1H-pyrazolo[4,3-c]pyridin-4-yl)benzyl)-5-fluoro-2-methoxybenzamide] | ≤ 5 nM | ≤ 5 nM | ≤ 5 nM
3 | COc1ccc(F)cc1C(=O)NCc1ccc(-c2ncc(-c3ccc(C(=O)N4C[C@H](C)O[C@@H](C)C4)cn3)c3[nH]nc(N)c23)cc1 [Example 53, N-(4-(3-amino-7-(5-((2S,6S)-2,6-dimethylmorpholine-4-carbonyl)pyridin-2-yl)-1H-pyrazolo[4,3-c]pyridin-4-yl)benzyl)-5-fluoro-2-methoxybenzamide] | 5 to 10 nM | ≤ 5 nM | ≤ 5 nM
4 | COc1ccc(F)cc1C(=O)NCc1ccc(-c2ncc(-c3ccc(P(C)(C)=O)cn3)c3[nH]nc(N)c23)cc1 [Example 56, N-(4-(3-amino-7-(5-(dimethylphosphoryl)pyridin-2-yl)-1H-pyrazolo[4,3-c]pyridin-4-yl)benzyl)-5-fluoro-2-methoxybenzamide] | ≤ 5 nM | > 50 nM | > 50 nM
5 | COc1ccc(F)cc1C(=O)NCc1ccc(-c2ncc(-c3nc4cnccn4n3)c3[nH]nc(N)c23)cc1 [Example 57, N-(4-(7-([1,2,4]triazolo[1,5-a]pyrazin-2-yl)-3-amino-1H-pyrazolo[4,3-c]pyridin-4-yl)benzyl)-5-fluoro-2-methoxybenzamide] | 10 to 50 nM | ≤ 5 nM | 5 to 10 nM
6 | COc1ccc(F)cc1C(=O)NCc1ccc(-c2ncc(-c3nc4ccccn4n3)c3[nH]nc(N)c23)cc1 [Example 58, N-(4-(7-([1,2,4]triazolo[1,5-a]pyridin-2-yl)-3-amino-1H-pyrazolo[4,3-c]pyridin-4-yl)benzyl)-5-fluoro-2-methoxybenzamide] | ≤ 5 nM | ≤ 5 nM | ≤ 5 nM
7 | COCCOc1ccc(-c2cnc(-c3ccc(CNC(=O)c4cc(F)ccc4OC)cc3)c3c(N)n[nH]c23)nc1 [Example 59, N-(4-(3-amino-7-(5-(2-methoxyethoxy)pyridin-2-yl)-1H-pyrazolo[4,3-c]pyridin-4-yl)benzyl)-5-fluoro-2-methoxybenzamide] | ≤ 5 nM | ≤ 5 nM | ≤ 5 nM
8 | COc1ccc(F)cc1C(=O)NCc1ccc(-c2ncc(-c3cc4ccccn4n3)c3[nH]nc(N)c23)cc1 [Example 69, N-(4-(3-amino-7-(pyrazolo[1,5-a]pyridin-2-yl)-1H-pyrazolo[4,3-c]pyridin-4-yl)benzyl)-5-fluoro-2-methoxybenzamide] | ≤ 5 nM | ≤ 5 nM | ≤ 5 nM
9 | COc1ccc(F)cc1C(=O)NCc1ccc(-c2ncc(-c3cc4n(n3)CCN(C)C4)c3[nH]nc(N)c23)cc1 [Example 71, N-(4-(3-amino-7-(5-methyl-4,5,6,7-tetrahydropyrazolo[1,5-a]pyrazin-2-yl)-1H-pyrazolo[4,3-c]pyridin-4-yl)benzyl)-5-fluoro-2-methoxybenzamide] | ≤ 5 nM | ≤ 5 nM | ≤ 5 nM
10 | COc1ccc(F)cc1C(=O)NCc1ccc(-c2ncc(-c3ccc(N4CCN(C)CC4)cn3)c3[nH]nc(N)c23)cc1 [Example 73, N-(4-(3-amino-7-(5-(4-methylpiperazin-1-yl)pyridin-2-yl)-1H-pyrazolo[4,3-c]pyridin-4-yl)benzyl)-5-fluoro-2-methoxybenzamide] | ≤ 5 nM | ≤ 5 nM | ≤ 5 nM
11 | COc1ccc(F)cc1C(=O)NCc1ccc(-c2ncc(-c3ccc(N4CCOCC4)cn3)c3[nH]nc(N)c23)cc1 [Example 76, N-(4-(3-amino-7-(5-morpholinopyridin-2-yl)-1H-pyrazolo[4,3-c]pyridin-4-yl)benzyl)-5-fluoro-2-methoxybenzamide] | ≤ 5 nM | ≤ 5 nM | ≤ 5 nM
12 | COc1ccc(F)cc1C(=O)NCc1ccc(-c2ncc(-c3nccn4cccc34)c3[nH]nc(N)c23)cc1 [Example 77, N-(4-(3-amino-7-(pyrrolo[1,2-a]pyrazin-1-yl)-1H-pyrazolo[4,3-c]pyridin-4-yl)benzyl)-5-fluoro-2-methoxybenzamide] | ≤ 5 nM | ≤ 5 nM | ≤ 5 nM

More lines, main results first:

Row | IC50 (Ramos cells with BTK WT) | Compound | IC50 (NIH/3T3 BTK WT cells) | IC50 (NIH/3T3 BTK C481S cells)
13 | ≤ 5 nM | COc1ccc(F)cc1C(=O)NCc1ccc(-c2ncc(-c3ccc(C(=O)N4C[C@@H](C)O[C@H](C)C4)cn3)c3[nH]nc(N)c23)cc1 [Example 54, N-(4-(3-amino-7-(5-((2R,6R)-2,6-dimethylmoroholine-4-carbonyl)pyridin-2-yl)-1H-pyrazolo[4,3-c]pyridin-4-yl)benzyl)-5-fluoro-2-methoxybenzamide] | ≤ 5 nM | ≤ 5 nM
14 | ≤ 5 nM | COc1ccc(F)cc1C(=O)NCc1ccc(-c2ncc(-c3ccc(OCCN(C)C)cn3)c3[nH]nc(N)c23)cc1 [Example 60, N-(4-(3-amino-7-(5-(2-(dimethylamino)ethoxy)pyridin-2-yl)-1H-pyrazolo[4,3-c]pyridin-4-yl)benzyl)-5-fluoro-2-methoxybenzamide] | ≤ 5 nM | ≤ 5 nM
15 | ≤ 5 nM | COc1ccc(F)cc1C(=O)NCc1ccc(-c2ncc(-c3ccc(OCCN4CCOCC4)cn3)c3[nH]nc(N)c23)cc1 [Example 61, N-(4-(3-amino-7-(5-(2-morpholinoethoxy)pyridin-2-yl)-1H-pyrazolo[4,3-c]pyridin-4-yl)benzyl)-5-fluoro-2-methoxybenzamide] | ≤ 5 nM | ≤ 5 nM
16 | 5 to 10 nM | COc1ccc(F)cc1C(=O)NCc1ccc(-c2ncc(-c3ccc(OCCN4CCCC4)cn3)c3[nH]nc(N)c23)cc1 [Example 62, N-(4-(3-amino-7-(5-(2-(pyrrolidin-1-yl)ethoxy)pyridin-2-yl)-1H-pyrazolo[4,3-c]pyridin-4-yl)benzyl)-5-fluoro-2-methoxybenzamide] | ≤ 5 nM | ≤ 5 nM
17 | ≤ 5 nM | COc1ccc(F)cc1C(=O)NCc1ccc(-c2ncc(-c3ccc(C(C)(C)O)cn3)c3[nH]nc(N)c23)cc1 [Example 65, N-(4-(3-amino-7-(5-(2-hydroxypropan-2-yl)pyridin-2-yl)-1H-pyrazolo[4,3-c]pyridin-4-yl)benzyl)-5-fluoro-2-methoxybenzamide] | ≤ 5 nM | 5 to 10 nM
18 | 5 to 10 nM | COc1ccc(F)cc1C(=O)NCc1ccc(-c2ncc(-c3ccc(CN4CCCCC4)cn3)c3[nH]nc(N)c23)cc1 [Example 66, N-(4-(3-amino-7-(5-(piperidin-1-ylmethyl)pyridin-2-yl)-1H-pyrazolo[4,3-c]pyridin-4-yl)benzyl)-5-fluoro-2-methoxybenzamide] | ≤ 5 nM | ≤ 5 nM
19 | ≤ 5 nM | COc1ccc(F)cc1C(=O)NCc1ccc(-c2ncc(-c3ccc(CN4CCOCC4)cn3)c3[nH]nc(N)c23)cc1 [Example 67, N-(4-(3-amino-7-(5-(morpholinomethyl)pyridin-2-yl)-1H-pyrazolo[4,3-c]pyridin-4-yl)benzyl)-5-fluoro-2-methoxybenzamide] | ≤ 5 nM | ≤ 5 nM
20 | ≤ 5 nM | COc1ccc(F)cc1C(=O)NCc1ccc(-c2ncc(-c3ccc(CN4CCN(C)CC4)cn3)c3[nH]nc(N)c23)cc1 [Example 68, N-(4-(3-amino-7-(5-((4-methylpiperazin-1-yl)methyl)pyridin-2-yl)-1H-pyrazolo[4,3-c]pyridin-4-yl)benzyl)-5-fluoro-2-methoxybenzamide] | ≤ 5 nM | ≤ 5 nM
21 | ≤ 5 nM | COc1ccc(F)cc1C(=O)NCc1ccc(-c2ncc(-c3cnn4cccnc34)c3[nH]nc(N)c23)cc1 [Example 70, N-(4-(3-amino-7-(pyrazolo[1,5-a]pyrimidin-3-yl)-1H-pyrazolo[4,3-c]pyridin-4-yl)benzyl)-5-fluoro-2-methoxybenzamide] | ≤ 5 nM | ≤ 5 nM
22 | ≤ 5 nM | CCN1CCn2nc(-c3cnc(-c4ccc(CNC(=O)c5cc(F)ccc5OC)cc4)c4c(N)n[nH]c34)cc2C1 [Example 72, N-(4-(3-amino-7-(5-ethyl-4,5,6,7-tetrahydropyrazolo[1,5-a]pyrazin-2-yl)-1H-pyrazolo[4,3-c]pyridin-4-yl)benzyl)-5-fluoro-2-methoxybenzamide] | ≤ 5 nM | ≤ 5 nM
23 | ≤ 5 nM | COc1ccc(F)cc1C(=O)NCc1ccc(-c2ncc(-c3ccc(N4CCN(C)C[C@@H]4C)cn3)c3[nH]nc(N)c23)cc1 [Example 74, (S)-N-(-4-(3-amino-7-(5-(2,4-dimethylpiperazin-1-yl)pyridin-2-yl) 1H-pyrazolo[4,3-c]pyridin-4-yl)benzyl)-5-fluoro-2-methoxybenzamide] | ≤ 5 nM | ≤ 5 nM
24 | ≤ 5 nM | COc1ccc(F)cc1C(=O)NCc1ccc(-c2ncc(-c3ccc(N4CCN(C)C[C@H]4C)cn3)c3[nH]nc(N)c23)cc1 [Example 75, (R)-N-(-4-(3-amino-7-(5-(2,4-dimethylpiperazin-1-yl)pyridin-2-yl) 1H-pyrazolo[4,3-c]pyridin-4-yl)benzyl)-5-fluoro-2-methoxybenzamide] | ≤ 5 nM | ≤ 5 nM
